Laboratory results taken from patent publication US11649245B2, “Cyclopropylamine compound as LSD1 inhibitor and use thereof” (HELIOEAST PHARMACEUTICAL CO., LTD., priority 2018, dated 2023).
Counter-ions that a name gives are not always drawn.

Columns and labels:
[1] = target: human LSD1 (Homo sapiens, UniProt O60341); test: In vitro enzyme activity screening against LSD1 (HRP/Amplex Red fluorescence coupling enzyme method); type: biochemical; details: human LSD1, histone H3K4me peptide substrate 20 μM
Procedure: The purpose of this test was to detect the in vitro inhibitory activity of the compounds against LSD1. The enzyme used in this test was human LSD1, the standard substrate was histone H3K4me peptide (20 μM), the fluorescence coupling enzyme method was used to determine the activity of the compound by combining horseradish peroxidase (HRP) and fluorescent reagent Amplex Red to detect the H2O2 generation as a result of the reaction of LSD1. Compounds were tested in 10-dose IC50 mode with a 3-fold serial dilution starting at 10 μM. The enzyme and […] to start the reaction. Fluorescence detector: Envision, excitation wavelength: Ex/Em=530/590 […]

[2] = In vivo pharmacokinetics in CD-1 mice; details: male, CD-1, mouse, plasma, male CD-1 mice; for half-life / clearance / Vd: iv, 1 mg/kg; for half-life: IV 1 mg/kg, read-out: Half-life T1/2 (IV) (converted); for clearance / Vd / Cmax: study doses 1 mg/kg intravenous, 2 mg/kg oral; for clearance: read-out: Clearance CL; for Vd: read-out: Volumes of distribution Vdss; for Cmax: route not given, read-out: Max concentration Cmax; for AUC(0-t) / bioavailability: po, 2 mg/kg; for AUC(0-t): PO 2 mg/kg, read-out: The area under the plasma concentration-time curve AUC0-last PO; for bioavailability: oral 2 mg/kg vs intravenous 1 mg/kg, read-out: Bioavailability F
Procedure: CD-1 mice (male, 7-9 weeks old, Shanghai Slac)
The rodent pharmacokinetic characteristics after intravenous injection and oral administration of the compounds were tested by standard protocols, in the experiment, the candidate compounds were formulated into clear solutions and administrated to mice via a single intravenous injection and oral administration. The vehicle for intravenous injection and oral administration was a mixed solution of 10% of dimethyl sulfoxide and 90% of 10% hydroxypropyl β cyclodextrin. This project used four male CD-1 mice, two mice were administered intravenously, with a dose of 1 mg/kg, and plasma samples were collected at 0 hour (before administration) and 0.0833, 0.25, 0.5, 1, 2, 4, 8, 24 hours after administration. The other two mice were orally administered by gavage, with a dose of 2 mg/kg, plasma samples were collected at 0 hour (before administration) and 0.25, 0.5, 1, 2, 4, 8, 24 hours after administration, whole blood samples were collected within 24 hours, which were centrifuged at 3000 g for 15 minutes, and the supernatants were separated to obtain plasma samples, 4 times volume of acetonitrile solutions containing internal standard were added to precipitate the protein, the mixtures were centrifuged to obtain the supernatants, the supernatants were added with water of equal volume and centrifuged again to take the supernatant for injection, and the blood drug concentration was quantitatively analyzed by the LC-MS/MS analysis method, and pharmacokinetic parameters were calculated, such as max concentration (Cmax), clearance (CL), half-life (T1/2), volumes of distribution (Vdss), the area under the plasma concentration-time curve (AUC0-last), bioavailability (F) etc.

[3] = tested on: NCI-H1417 cells; test: Antiproliferation activity on NCI-H1417 cells (CellTiter-Glo, 10 days); type: cell-based, human; details: Homo sapiens, NCI-H1417, 240 h, incubated for 10 days
Procedure: Experimental purpose: to detect the antiproliferation activity of the compounds on NCI-H1417 cells.
Experimental materials: RPMI 1640 culture medium, fetal bovine serum, Promega CellTiter-Glo reagent. NCI-H1417 cell line purchased from ATCC. Envision multi-label reader (PerkinElmer).
Experimental method: the compounds were dissolved to 10 mM, then the compounds were diluted 5 times with DMSO in a compound plate, the compounds were diluted 3-fold with Bravo from a starting concentration of 2 mM to the 10th concentration, 250 nL of the solutions were transferred to the upper and lower duplicate wells on a blank 384 cell plate by Echo transfer plate, cell suspension of per well/1000 cells/50 μL was added to the transferred 250 nL DMSO/compound, the compounds were diluted 200-fold, i.e., the initial action concentration was 10 μM. The cell plate was placed in a carbon dioxide incubator and incubated for 10 days. 25 μL of Promega CellTiter-Glo reagent was added to each well on the cell plate and was shaken at room temperature for 10 minutes to stabilize the luminescence signal. Readings were performed by PerkinElmer Envision multi-label analyzer.
Data analysis: the equation (Max-Ratio)/(Max-Min)*100% was used to convert the original data into the inhibition rate, the value of IC50 can be obtained by curve fitting of four-parameters (the 205 mode in XLFITS, iDBS).

[4] = tested on: HL60 cells; test: Antiproliferation activity on HL60 cells (CellTiter-Glo, 6 days); type: cell-based; details: Homo sapiens, HL-60, 144 h, incubated for 6 days
Text: Experimental purpose: to detect the antiproliferation activity of the compound to be tested on HL60 cells.
(§1) Experimental materials: RPMI-1640 culture medium, fetal bovine serum, penicillin/streptomycin antibiotics purchased from Wisent. CellTiter-Glo (chemiluminescent cell viability assay reagent) reagents purchased from Promega. HL60 cell line purchased from Nanjing Cobioer Co., Ltd. Nivo multi-label reader (PerkinElmer).
Experimental method: HL60 cells were planted in a white 384-well plate, 40 μL of cell suspension per well, 600 HL60 cells were contained therein. The cell plate was placed in a carbon dioxide incubator for overnight culture. The compounds to be tested were diluted 5-fold with a pipet until the 10th concentration, i.e., diluted from 2 mM to 1.024 nM, double duplicate well experiment was set. 78 μL of the culture medium was added to an intermediate plate, and then 2 μL per well of the serially diluted compounds were transferred to the corresponding positions on the intermediate plate, after mixing, 10 μL per well was transferred to the cell plate. The cell plate was incubated in a carbon dioxide incubator for 6 days. Another cell plate was prepared and the signal value on the day of dosing was read as the maximum value (Max value in the equation below) to participate in the data analysis. 20 μL of chemiluminescent cell viability assay reagent was added to each well of this cell plate, which was incubated at room temperature for 10 minutes to stabilize the luminescence signal. The multi-label reader was used for reading.
(§2) Data analysis: the equation (Sample-Min)/(Max-Min)*100% was used to convert the original data into the inhibition rate, the IC50 value can be obtained by curve fitting of four-parameters (“log(inhibitor) vs. response—Variable slope” mode in GraphPad Prism)).

[5] = tested on: MV-4-11 cells; test: Antiproliferation activity on MV-4-11 cells (CellTiter-Glo, 6 days); type: cell-based; details: Homo sapiens, MV4-11, 144 h, incubated for 6 days
Text: Experimental purpose: to detect the antiproliferation activity of the compound to be tested on MV-4-11 cells.
as §1, with “IMDM” for “RPMI-1640”, “MV-4-11” for “HL60”, “line was” for “line”, “Multi-Marker Analyzer” for “multi-label reader”
Experimental method: MV-4-11 cells were planted in a white 96-well plate, 80 μL of cell suspension per well, which contained 6000 MV-4-11 cells. The cell plate was placed in a carbon dioxide incubator for overnight culture.
The compounds to be tested were diluted 5-fold with a pipet until the 8th concentration, i.e., diluted from 2 mM to 25.6 nM, double duplicate well experiment was set. 78 μL of the culture medium was added to an intermediate plate, and then 2 μL per well of the serially diluted compounds were transferred to the corresponding positions on the intermediate plate, after mixing, 20 μL per well was transferred to the cell plate. The cell plate was incubated in a carbon dioxide incubator for 6 days. Another cell plate was prepared and the signal value on the day of dosing was read as the maximum value (Max value in the equation below) to participate in the data analysis. 25 μL of the chemiluminescent cell viability assay reagent was added to each well of this cell plate, which was incubated at room temperature for 10 minutes to stabilize the luminescence signal. The multi-label analyzer was used for reading.
as §2

| Compound | IC50 [1] | other results |
| --- | --- | --- |
| O=C(O)c1ccc(NC(=O)N2CCC3(CC2)CC(N[C@@H]2C[C@H]2c2ccccc2)CO3)cc1 (stereo partly shown) [Hydrochloride of the compound 1] | 1690 nM |  |
| O=C(O)c1ccc(CN2CC3(CC(N[C@@H]4C[C@H]4c4ccccc4)CO3)C2)cc1 (stereo partly shown) [Hydrochloride of the compound 2] | 1580 nM |  |
| O=C(O)c1cccc(CN2CCC3(CC2)CC(N[C@@H]2C[C@H]2c2ccccc2)CO3)c1 (stereo partly shown) [Hydrochloride of the compound 3] | 96.7 nM |  |
| O=C(O)c1ccc(CN2CC3(CC(N[C@@H]4C[C@H]4c4ccccc4)CCO3)C2)cc1 (stereo partly shown) [Hydrochloride of the compound 4] | 940 nM |  |
| O=C(O)c1ccc(CN2CCC3(CC2)OCC3N[C@@H]2C[C@H]2c2ccccc2)cc1 (stereo partly shown) [Hydrochloride of the compound 5] | 3850 nM |  |
| O=C(O)c1ccc(N2CCC3(CC2)CC(N[C@@H]2C[C@H]2c2ccccc2)CO3)cc1 (stereo partly shown) [Hydrochloride of the compound 11] | 2880 nM |  |
| O=C(O)Cc1ccc(N2CCC3(CC2)CC(N[C@@H]2C[C@H]2c2ccccc2)CO3)cc1 (stereo partly shown) [Hydrochloride of the compound 12] | 1380 nM |  |
| O=C(O)c1ccc(CN2CCC3(CC2)CC(N[C@@H]2C[C@H]2c2ccccc2)CO3)nc1 (stereo partly shown) [Hydrochloride of the compound 14] | 118 nM | half-life [2]: 52.4 min; clearance [2]: 16.9 mL/min/kg; Vd [2]: 0.551 L/kg; Cmax [2]: 629 nM; AUC(0-t) [2]: 1.38 µM·h; bioavailability [2]: 28.7% |
| O=C(O)c1ccc(CCN2CCC3(CC2)CC(N[C@@H]2C[C@H]2c2ccccc2)CO3)cc1 (stereo partly shown) [Hydrochloride of the compound 19] | 208 nM | IC50 [3]: 6.95 nM; IC50 [4]: 1.46 nM; IC50 [5]: 4.41 nM |
| O=C(O)c1ccc(C(=O)N2CCC3(CC2)CC(N[C@@H]2C[C@H]2c2ccccc2)CO3)cc1 (stereo partly shown) [Hydrochloride of the compound 22] | 908 nM |  |
| O=C(O)c1ccc(OC(=O)N2CCC3(CC2)CC(N[C@@H]2C[C@H]2c2ccccc2)CO3)cc1 (stereo partly shown) [Hydrochloride of the compound 25] | 1720 nM |  |
| O=C(O)c1ccc(CN2CCC3(CC2)CC(N[C@@H]2C[C@H]2c2ccccc2)CCO3)cc1 (stereo partly shown) [Hydrochloride of the compound 26] | 271 nM |  |
| O=C(O)[C@H]1CC[C@H](CN2CCC3(CC2)CC(N[C@@H]2C[C@H]2c2ccccc2)CO3)CC1 (stereo partly shown) [Hydrochloride of the compound 27] | 1780 nM |  |
| O=C(O)C12CCC(CN3CCC4(CC3)CC(N[C@@H]3C[C@H]3c3ccccc3)CO4)(CC1)CC2 (stereo partly shown) [Hydrochloride of the compound 28] | 1460 nM |  |
| O=C(O)C1CC(CN2CCC3(CC2)CC(N[C@@H]2C[C@H]2c2ccccc2)CO3)C1 (stereo partly shown) [Hydrochloride of the compound 29] | 1670 nM |  |
| O=C(O)C1(CN2CCC3(CC2)CC(N[C@@H]2C[C@H]2c2ccccc2)CO3)CC1 (stereo partly shown) [Hydrochloride of the compound 31] | 2120 nM |  |

Now those with a lower IC50 [1], led by results:

| IC50 [1] | Compound | other results |
| --- | --- | --- |
| 45.1 nM | O=C(O)c1ccccc1CN1CCC2(CC1)CC(N[C@@H]1C[C@H]1c1ccccc1)CO2 (stereo partly shown) [Hydrochloride of the compound 7] |  |
| 39.7 nM | COc1ccc(CN2CCC3(CC2)CC(N[C@@H]2C[C@H]2c2ccccc2)CO3)cc1 (stereo partly shown) [Hydrochloride of the compound 8] |  |
| 37.8 nM | Fc1ccc(CN2CCC3(CC2)CC(N[C@@H]2C[C@H]2c2ccccc2)CO3)cc1 (stereo partly shown) [Hydrochloride of the compound 9] |  |
| 78.4 nM | FC(F)(F)c1ccc(CN2CCC3(CC2)CC(N[C@@H]2C[C@H]2c2ccccc2)CO3)cc1 (stereo partly shown) [Hydrochloride of the compound 10] |  |
| 46.6 nM | Clc1ccc(CN2CCC3(CC2)CC(N[C@@H]2C[C@H]2c2ccccc2)CO3)cc1 (stereo partly shown) [Hydrochloride of the compound 13] |  |
| 70.6 nM | O=C(O)c1ccc2cc(CN3CCC4(CC3)CC(N[C@@H]3C[C@H]3c3ccccc3)CO4)ccc2c1 (stereo partly shown) [Hydrochloride of the compound 17] | IC50 [3]: 0.65 nM; IC50 [4]: 0.78 nM; IC50 [5]: 2.86 nM |
| 92.9 nM | O=C(O)c1cnc(CN2CCC3(CC2)CC(N[C@@H]2C[C@H]2c2ccccc2)CO3)cn1 (stereo partly shown) [Hydrochloride of the compound 18] | IC50 [4]: 20.4 nM; IC50 [5]: 16 nM |
| 64.6 nM | NC(=O)c1ccc(CN2CCC3(CC2)CC(N[C@@H]2C[C@H]2c2ccccc2)CO3)cc1 (stereo partly shown) [Hydrochloride of the compound 23] | IC50 [3]: 1.68 nM; half-life [2]: 259 min; clearance [2]: 68.7 mL/min/kg; Vd [2]: 18.6 L/kg; Cmax [2]: 144 nM; AUC(0-t) [2]: 0.36 µM·h; bioavailability [2]: 37.2% |
| 41.5 nM | c1ccc([C@@H]2C[C@H]2NC2COC3(CCN(Cc4ccc(-c5nn[nH]n5)cc4)CC3)C2)cc1 (stereo partly shown) [Hydrochloride of the compound 24] | IC50 [4]: 39.1 nM; IC50 [5]: 38.3 nM |
| 48.2 nM | c1ccc([C@@H]2C[C@H]2NC2COC3(CCN(CCc4nn[nH]n4)CC3)C2)cc1 (stereo partly shown) [Hydrochloride of the compound 33] |  |
